# System: MV-4-11 cells
# Assay: Gene expression microarray analysis (Affymetrix PrimeView) and GSEA
# Type: cell-based, human
# Design: RFU PODN (11730768_x_at) / Fold change /veh PODN (11730768_x_at) / RFU LINC00158 (11744669_a_at) / Fold change /veh LINC00158 (11744669_a_at) / RFU DUSP10 (11751237_a_at) / Fold change /veh DUSP10 (11751237_a_at) / RFU ID3 (11757404_x_at) / Fold change /veh ID3 (11757404_x_at) / RFU PLEKHG5 (11737974_s_at) / Fold change /veh PLEKHG5 (11737974_s_at) / RFU LRRC4B (11730491_at) / Fold change /veh LRRC4B (11730491_at) / RFU GIMAP4 (11747438_a_at) / Fold change /veh GIMAP4 (11747438_a_at) / RFU KRT8 (11758183_x_at) / Fold change /veh KRT8 (11758183_x_at) / RFU CNN1 (11734310_a_at) / Fold change /veh CNN1 (11734310_a_at) / RFU VPS37D (11726825_at) / Fold change /veh VPS37D (11726825_at) / RFU C10orf10 (11716522_x_at) / Fold change /veh C10orf10 (11716522_x_at) / RFU KIR2DL2 /// KIR2DL4 /// KIR2DL5A /// KIR2DL5B /// KIR2DS1 /// KIR2DS2 /// KIR2DS3 /// KIR2DS4 /// KIR3DL3 /// KIR3DL3 /// KIR3DS1 (11738374_at) / Fold change /veh KIR2DL2 /// KIR2DL4 /// KIR2DL5A /// KIR2DL5B /// KIR2DS1 /// KIR2DS2 /// KIR2DS3 /// KIR2DS4 /// KIR3DL3 /// KIR3DL3 /// KIR3DS1 (11738374_at) / RFU C1QL1 (11718748_at) / Fold change /veh C1QL1 (11718748_at) / RFU TMPRSS4 (11747572_a_at) / Fold change /veh TMPRSS4 (11747572_a_at) / RFU HAMP (11756126_x_at) / Fold change /veh HAMP (11756126_x_at) / RFU RNFT2 (11725882_a_at) / Fold change /veh RNFT2 (11725882_a_at) / RFU NR4A2 (11747474_a_at) / Fold change /veh NR4A2 (11747474_a_at) / RFU ABCC12 (11746883_a_at) / Fold change /veh ABCC12 (11746883_a_at) / RFU TMEM136 (11760407_x_at) / Fold change /veh TMEM136 (11760407_x_at) / RFU CLDN22 /// WWC2 (11732394_at) / Fold change /veh CLDN22 /// WWC2 (11732394_at) / RFU HLA-DPB1 (11760878_x_at) / Fold change /veh HLA-DPB1 (11760878_x_at) / RFU SPINT1 (11716480_a_at) / Fold change /veh SPINT1 (11716480_a_at) / RFU GAP43 (11754022_s_at) / Fold change /veh GAP43 (11754022_s_at) / RFU A4GNT (11735810_at) / Fold change /veh A4GNT (11735810_at) / RFU PRB3 (11715151_x_at) / Fold change /veh PRB3 (11715151_x_at) / RFU TUBB4B (11761932_at) / Fold change /veh TUBB4B (11761932_at) / RFU CAPN14 (11732068_a_at) / Fold change /veh CAPN14 (11732068_a_at) / RFU TMCC2 (11721928_a_at) / Fold change /veh TMCC2 (11721928_a_at) / RFU IRGQ (11745062_a_at) / Fold change /veh IRGQ (11745062_a_at) / RFU FAM174B (11720279_a_at) / Fold change /veh FAM174B (11720279_a_at) / RFU TMPRSS4 (11748680_a_at) / Fold change /veh TMPRSS4 (11748680_a_at) / RFU FAM212B (11763350_a_at) / Fold change /veh FAM212B (11763350_a_at) / RFU PLEKHG5 (11743358_a_at) / Fold change /veh PLEKHG5 (11743358_a_at) / RFU ZSCAN30 (11745921_a_at) / Fold change /veh ZSCAN30 (11745921_a_at) / RFU CMKLR1 (11741424_a_at) / Fold change /veh CMKLR1 (11741424_a_at) / RFU LOC101060620 /// MAPK8IP1 (11723275_at) / Fold change /veh LOC101060620 /// MAPK8IP1 (11723275_at) / RFU SPTSSB (11747773_x_at) / Fold change /veh SPTSSB (11747773_x_at) / RFU PRSS12 (11739890_at) / Fold change /veh PRSS12 (11739890_at) / RFU BIN1 (11741810_x_at) / Fold change /veh BIN1 (11741810_x_at) / RFU WNT11 (11732464_a_at) / Fold change /veh WNT11 (11732464_a_at) / RFU C10orf10 (11716521_a_at) / Fold change /veh C10orf10 (11716521_a_at) / RFU C5orf56 (11738089_at) / Fold change /veh C5orf56 (11738089_at) / RFU CYB561 (11721691_x_at) / Fold change /veh CYB561 (11721691_x_at) / RFU ANKRD19P (11752326_a_at) / Fold change /veh ANKRD19P (11752326_a_at) / RFU OR2T12 /// OR2T33 /// OR2T8 (11738714_s_at) / Fold change /veh OR2T12 /// OR2T33 /// OR2T8 (11738714_s_at) / RFU VCAN (11748164_a_at) / Fold change /veh VCAN (11748164_a_at) / RFU JSRP1 (11732532_at) / Fold change /veh JSRP1 (11732532_at) / RFU KRTAP10-11 (11738290_x_at) / Fold change /veh KRTAP10-11 (11738290_x_at) / RFU MYO3A (11730013_a_at) / Fold change /veh MYO3A (11730013_a_at) / RFU EBF3 (11725865_a_at) / Fold change /veh EBF3 (11725865_a_at) / RFU CAMK2N1 (11719241_x_at) / Fold change /veh CAMK2N1 (11719241_x_at) / RFU C5orf56 (11738088_a_at) / Fold change /veh C5orf56 (11738088_a_at) / RFU OLFML3 (11715873_a_at) / Fold change /veh OLFML3 (11715873_a_at) / RFU LOC100653217 /// NTM (11731650_a_at) / Fold change /veh LOC100653217 /// NTM (11731650_a_at) / RFU MAPK11 (11762145_a_at) / Fold change /veh MAPK11 (11762145_a_at) / RFU FIZ1 (11724087_x_at) / Fold change /veh FIZ1 (11724087_x_at) / RFU OASL (11726364_x_at) / Fold change /veh OASL (11726364_x_at) / RFU SOX15 (11748057_x_at) / Fold change /veh SOX15 (11748057_x_at) / RFU CD79A (11719716_a_at) / Fold change /veh CD79A (11719716_a_at) / RFU HIST1H1D (11736915_at) / Fold change /veh HIST1H1D (11736915_at) / RFU CASKIN2 (11723855_a_at) / Fold change /veh CASKIN2 (11723855_a_at) / RFU LOC730098 (11760151_x_at) / Fold change /veh LOC730098 (11760151_x_at) / RFU OR4N2 (11742367_at) / Fold change /veh OR4N2 (11742367_at) / RFU PRRT2 (11749266_a_at) / Fold change /veh PRRT2 (11749266_a_at) / RFU SNX32 (11753110_a_at) / Fold change /veh SNX32 (11753110_a_at) / RFU CDHR5 (11726645_a_at) / Fold change /veh CDHR5 (11726645_a_at) / RFU RCAN1 (11760418_a_at) / Fold change /veh RCAN1 (11760418_a_at) / RFU FAM167A (11723789_a_at) / Fold change /veh FAM167A (11723789_a_at) / RFU FAM26E (11764081_at) / Fold change /veh FAM26E (11764081_at) / RFU ISYNA1 (11749810_s_at) / Fold change /veh ISYNA1 (11749810_s_at) / RFU ACY1 (11761880_at) / Fold change /veh ACY1 (11761880_at) / RFU 11764098_at / Fold change /veh 11764098_at / RFU SAMD14 (11745864_x_at) / Fold change /veh SAMD14 (11745864_x_at) / RFU NPB (11741838_a_at) / Fold change /veh NPB (11741838_a_at) / RFU TMPRSS6 (11731388_a_at) / Fold change /veh TMPRSS6 (11731388_a_at) / RFU KRTAP10-2 (11738614_at) / Fold change /veh KRTAP10-2 (11738614_at) / RFU ARHGAP8 /// PRR5-ARHGAP8 (11727945_x_at) / Fold change /veh ARHGAP8 /// PRR5-ARHGAP8 (11727945_x_at) / RFU KRTAP5-7 /// NADSYN1 (11734609_at) / Fold change /veh KRTAP5-7 /// NADSYN1 (11734609_at) / RFU RASL12 (11751679_a_at) / Fold change /veh RASL12 (11751679_a_at) / RFU CDKN2B (11736163_a_at) / Fold change /veh CDKN2B (11736163_a_at) / RFU PRF1 (11729649_at) / Fold change /veh PRF1 (11729649_at) / RFU, ZNF638 /// ZNF638-IT1 / Fold change vs veh, ZNF638 /// ZNF638-IT1 / RFU, PANK3 / Fold change vs veh, PANK3 / RFU, SH3YL1 / Fold change vs veh, SH3YL1 / RFU, ZEB2 / Fold change vs veh, ZEB2 / RFU, NRIP1 / Fold change vs veh, NRIP1 / RFU, PTTG1IP / Fold change vs veh, PTTG1IP / RFU, CAPN2 / Fold change vs veh, CAPN2 / RFU, MED14 / Fold change vs veh, MED14 / RFU, SNORA58 / Fold change vs veh, SNORA58 / RFU, C1orf63 / Fold change vs veh, C1orf63 / RFU, LRRFIP1 / Fold change vs veh, LRRFIP1 / RFU, NDUFAF7 / Fold change vs veh, NDUFAF7 / RFU, SLC12A2 / Fold change vs veh, SLC12A2 / RFU, IBTK / Fold change vs veh, IBTK / RFU, ESF1 / Fold change vs veh, ESF1 / Fold change vs veh, TMEM50B / RFU, TAOK1 / Fold change vs veh, TAOK1 / RFU, ACBD3 / Fold change vs veh, ACBD3 / RFU, TMA16 / Fold change vs veh, TMA16 / RFU, RWDD3 / Fold change vs veh, RWDD3 / RFU, BCAT1 / Fold change vs veh, BCAT1 / RFU, EDEM3 / Fold change vs veh, EDEM3 / RFU, TMEM33 / Fold change vs veh, TMEM33 / RFU, WDR75 / Fold change vs veh, WDR75 / RFU, AHCTF1 / Fold change vs veh, AHCTF1 / RFU, TFRC / Fold change vs veh, TFRC / RFU, ZDHHC17 / Fold change vs veh, ZDHHC17 / RFU, NOM1 / Fold change vs veh, NOM1 / RFU, ARL8B / Fold change vs veh, ARL8B / RFU, ZBTB11 / Fold change vs veh, ZBTB11 / RFU, TAMM41 / Fold change vs veh, TAMM41 / RFU, KIAA1704 /// LOC100996395 / Fold change vs veh, KIAA1704 /// LOC100996395 / RFU, ING1 / Fold change vs veh, ING1 / RFU, TRMT61B / Fold change vs veh, TRMT61B / RFU, FUBP3 / Fold change vs veh, FUBP3 / RFU, TP53 / Fold change vs veh, TP53 / RFU, TNKS2 / Fold change vs veh, TNKS2 / RFU, ZFP14 / Fold change vs veh, ZFP14 / RFU, ACTR2 / Fold change vs veh, ACTR2 / RFU, PPP3R1 / Fold change vs veh, PPP3R1 / RFU, PIK3R1 / Fold change vs veh, PIK3R1 / RFU, HNRNPA1 / Fold change vs veh, HNRNPA1 / RFU, RNF170 / Fold change vs veh, RNF170 / RFU, ZNF28 / Fold change vs veh, ZNF28 / RFU, RNGTT / Fold change vs veh, RNGTT / RFU, OGT / Fold change vs veh, OGT / RFU, BRD1 / Fold change vs veh, BRD1 / RFU, MARS / Fold change vs veh, MARS / RFU, ZNF655 / Fold change vs veh, ZNF655 / RFU, FAHD1 / Fold change vs veh, FAHD1 / RFU, BDP1 / Fold change vs veh, BDP1 / RFU, LRRCC1 / Fold change vs veh, LRRCC1 / RFU, ARID1A / Fold change vs veh, ARID1A / RFU, ZNF146 / Fold change vs veh, ZNF146 / RFU, ZNF330 / Fold change vs veh, ZNF330 / RFU, GPN3 / Fold change vs veh, GPN3 / RFU, C9orf123 / Fold change vs veh, C9orf123 / RFU, N4BP2L2 / Fold change vs veh, N4BP2L2 / RFU, ARFIP1 / Fold change vs veh, ARFIP1 / RFU, FAM179B / Fold change vs veh, FAM179B / RFU, BCL10 / Fold change vs veh, BCL10 / RFU, UHRF1BP1L / Fold change vs veh, UHRF1BP1L / RFU, BET1 / Fold change vs veh, BET1 / RFU, CNOT2 / Fold change vs veh, CNOT2 / RFU, ZNF268 / Fold change vs veh, ZNF268 / Fold change vs veh, ZNF507 / RFU, DGCR2 / Fold change vs veh, DGCR2 / RFU, WDSUB1 / Fold change vs veh, WDSUB1 / Fold change vs veh, HSP90B1 /// MIR3652 / RFU, ADSS / Fold change vs veh, ADSS / RFU, GK / Fold change vs veh, GK / RFU, ZNF148 / Fold change vs veh, ZNF148 / RFU, TAF9 / Fold change vs veh, TAF9 / RFU, SLC1A5 / Fold change vs veh, SLC1A5 / RFU, SLMO2 / Fold change vs veh, SLMO2 / RFU, ABCC4 / Fold change vs veh, ABCC4 / RFU, LOC101060439 /// RAP1B / Fold change vs veh, LOC101060439 /// RAP1B / RFU, RFX7 / Fold change vs veh, RFX7 / RFU, GTPBP10 / Fold change vs veh, GTPBP10 / RFU, CNEP1R1 / Fold change vs veh, CNEP1R1 / RFU, BIVM-ERCC5 /// ERCC5 / Fold change vs veh, BIVM-ERCC5 /// ERCC5 / RFU, ILF3 / Fold change vs veh, ILF3 / RFU 11762660_at / Fold change /veh 11762660_at / RFU VCAN (11757783_s_at) / Fold change /veh VCAN (11757783_s_at) / RFU DDX43 (11728927_at) / Fold change /veh DDX43 (11728927_at) / RFU KRT8 (11758188_x_at) / Fold change /veh KRT8 (11758188_x_at) / RFU NKD1 (11759106_at) / Fold change /veh NKD1 (11759106_at) / RFU SRD5A1 (11742802_a_at) / Fold change /veh SRD5A1 (11742802_a_at) / RFU TPSAB1 /// TPSB2 (11721975_s_at) / Fold change /veh TPSAB1 /// TPSB2 (11721975_s_at) / RFU GSTM3 (11746129_a_at) / Fold change /veh GSTM3 (11746129_a_at) / RFU IL23R (11737362_x_at) / Fold change /veh IL23R (11737362_x_at) / RFU TMEM51 (11727254_a_at) / Fold change /veh TMEM51 (11727254_a_at) / RFU PIWIL2 (11732686_x_at) / Fold change /veh PIWIL2 (11732686_x_at) / RFU ORM1 (11744905_x_at) / Fold change /veh ORM1 (11744905_x_at) / RFU CCDC152 (11743942_at) / Fold change /veh CCDC152 (11743942_at) / RFU ECM1 (11717891_a_at) / Fold change /veh ECM1 (11717891_a_at) / RFU IL23R (11748794_a_at) / Fold change /veh IL23R (11748794_a_at) / RFU TNFAIP8L3 (11732012_x_at) / Fold change /veh TNFAIP8L3 (11732012_x_at) / RFU MBOAT4 (11741988_at) / Fold change /veh MBOAT4 (11741988_at) / RFU 11764193_at / Fold change /veh 11764193_at / RFU TMEM53 (11763286_at) / Fold change /veh TMEM53 (11763286_at) / RFU MAGEB2 (11727129_at) / Fold change /veh MAGEB2 (11727129_at) / RFU TMEM200A (11744735_a_at) / Fold change /veh TMEM200A (11744735_a_at) / RFU CCDC152 (11751479_a_at) / Fold change /veh CCDC152 (11751479_a_at) / RFU FAM211A (11726209_a_at) / Fold change /veh FAM211A (11726209_a_at) / RFU RGS16 (11746705_a_at) / Fold change /veh RGS16 (11746705_a_at) / RFU VCAN (11755009_s_at) / Fold change /veh VCAN (11755009_s_at) / RFU RHOB (11743442_s_at) / Fold change /veh RHOB (11743442_s_at) / RFU RGS16 (11720943_a_at) / Fold change /veh RGS16 (11720943_a_at) / RFU RGS16 (11720944_at) / Fold change /veh RGS16 (11720944_at) / RFU, VPS4B / Fold change vs veh, VPS4B / RFU, CREB1 / Fold change vs veh, CREB1 / RFU, DNAJC13 / Fold change vs veh, DNAJC13 / RFU, GNAQ / Fold change vs veh, GNAQ / RFU, CDK5R1 / Fold change vs veh, CDK5R1 / RFU, ZRANB3 / Fold change vs veh, ZRANB3 / RFU, CUL4A / Fold change vs veh, CUL4A / RFU, CCNY / Fold change vs veh, CCNY / RFU, UFL1 / Fold change vs veh, UFL1 / RFU, COG3 / Fold change vs veh, COG3 / RFU, DIAPH2 / Fold change vs veh, DIAPH2 / RFU, SKA2 / Fold change vs veh, SKA2 / RFU, AFF3 / Fold change vs veh, AFF3 / RFU, LMF1 / Fold change vs veh, LMF1 / RFU, IPO11 / Fold change vs veh, IPO11 / RFU, DFFB / Fold change vs veh, DFFB / RFU, FOXP1 / Fold change vs veh, FOXP1 / RFU, CARD8 / Fold change vs veh, CARD8 / RFU, STRN3 / Fold change vs veh, STRN3 / RFU, ADK / Fold change vs veh, ADK / RFU, RASSF2 / Fold change vs veh, RASSF2 / RFU, WIPF1 / Fold change vs veh, WIPF1 / RFU, LARP1B / Fold change vs veh, LARP1B / RFU, RASA1 / Fold change vs veh, RASA1 / RFU, RB1 / Fold change vs veh, RB1 / RFU, PPFIA1 / Fold change vs veh, PPFIA1 / RFU, MAT2A / Fold change vs veh, MAT2A / RFU, CCT5 / Fold change vs veh, CCT5 / RFU, WDR92 / Fold change vs veh, WDR92 / RFU, CUX1 / Fold change vs veh, CUX1 / RFU, TTC7A / Fold change vs veh, TTC7A / RFU, TMEM135 / Fold change vs veh, TMEM135 / RFU, DEPTOR / Fold change vs veh, DEPTOR / RFU, CPM / Fold change vs veh, CPM / RFU, DNAJB6 / Fold change vs veh, DNAJB6 / RFU, CACNA2D3 / Fold change vs veh, CACNA2D3 / RFU, DTX4 / Fold change vs veh, DTX4 / RFU, TFCP2 / Fold change vs veh, TFCP2 / RFU, GMCL1 /// GMCL1P1 / Fold change vs veh, GMCL1 /// GMCL1P1 / RFU, AEBP2 / Fold change vs veh, AEBP2 / RFU, SNHG1 /// SNORD22 /// SNORD25 /// SNORD26 /// SNORD27 /// SNORD28 /// SNORD29 /// SNORD31 / Fold change vs veh, SNHG1 /// SNORD22 /// SNORD25 /// SNORD26 /// SNORD27 /// SNORD28 /// SNORD29 /// SNORD31 / Fold change (Aza/veh), C12orf56 (ProbeSet 11735607_a_at) / Fold change (ACY-1035/veh), C12orf56 (ProbeSet 11735607_a_at) / Fold change (Aza/veh), FGFR1OP (ProbeSet 11751329_s_at) / Fold change (ACY-1035/veh), FGFR1OP (ProbeSet 11751329_s_at) / Fold change (Aza/veh), VPS36 (ProbeSet 11739960_a_at) / Fold change (ACY-1035/veh), VPS36 (ProbeSet 11739960_a_at) / RFU SYPL1 (11715823_x_at) / Fold change /veh SYPL1 (11715823_x_at) / RFU IGFBP7 (11715501_s_at) / Fold change /veh IGFBP7 (11715501_s_at) / RFU REEP3 (11722064_at) / Fold change /veh REEP3 (11722064_at) / RFU IGLL1 (11728026_x_at) / Fold change /veh IGLL1 (11728026_x_at): dose or concentration left out as unconfirmed
# Conditions: MV-4-11 cells, 48 hours
smiles,measurement,value
Nc1ccc(-c2cccs2)cc1NC(=O)c1ccc2c(c1)cc(C1CC1)n2CCN1CCOCC1 [ACY-1035],Fold change /veh SPINT1 (11716480_a_at),1.05

# Reference: paper PMC5218480 (PLoS ONE, 2017)
